Laboratory results from ChEMBL document CHEMBL4417631, “Oral peptide inhibitors of interleukin-23 receptor and their use to treat inflammatory bowel diseases” (2017).
One block for each molecule: values may come before it. Activity calls are given as the source filed them. The calls are words filed in the database; no cut-off is given here.

What was measured:
Rattus norvegicus [1] = test: Anti-colitis activity in Sprague-Dawley rat model of DSS-induced colitis assessed as colon weight/colon length ratio at 30 mg/kg, po dosed 3 times per day (124.36 +/- 17.11 g/cm); assay type: functional
Rattus norvegicus [2] = test: Anti-colitis activity in Sprague-Dawley rat model of DSS-induced colitis assessed as reduction in colon macroscopic scores at 30 mg/kg, ip dosed 3 times per day; assay type: functional, organism-based
Rattus norvegicus [3] = test: Anti-colitis activity in Sprague-Dawley rat model of DSS-induced colitis assessed as improvement in stool consistency scores level at 30 mg/kg, ip dosed 3 times per day; assay type: functional, organism-based
Rattus norvegicus [4] = test: Anti-colitis activity in Sprague-Dawley rat model of DSS-induced colitis assessed as reduction in disease activity index at 30 mg/kg, po dosed 3 times per day; assay type: functional
Rattus norvegicus [5] = test: Anti-colitis activity in Sprague-Dawley rat model of DSS-induced colitis assessed as improvement in stool consistency scores level at 30 mg/kg, po dosed 3 times per day; assay type: functional, organism-based
Rattus norvegicus [6] = test: Anti-colitis activity in Sprague-Dawley rat model of DSS-induced colitis assessed as improvement in hematocrit scores level at 30 mg/kg, ip dosed 3 times per day; assay type: functional, organism-based
Rattus norvegicus [7] = test: Anti-colitis activity in Sprague-Dawley rat model of DSS-induced colitis assessed as improvement in hematocrit scores level at 30 mg/kg, po dosed 3 times per day; assay type: functional, organism-based
Rattus norvegicus [8] = test: Anti-colitis activity in Sprague-Dawley rat model of DSS-induced colitis assessed as change in body weight at 30 mg/kg, po dosed 3 times per day (-6.39 +/- 1.11%); assay type: functional
PBMC [9] = test: Inhibition of IL12-stimulated IFNgamma production in PHA-activated human PBMC at 0.0001 to 100 uM by ELISA; assay type: functional, cell-based
Rattus norvegicus [10] = test: Anti-colitis activity in Sprague-Dawley rat model of DSS-induced colitis assessed as reduction in colon macroscopic scores at 30 mg/kg, po dosed 3 times per day; assay type: functional, organism-based
Rattus norvegicus [11] = test: Anti-colitis activity in Sprague-Dawley rat model of TNBS-induced colitis assessed as reduction in colon weight/colon length ratio at 20 mg/kg, po dosed 3 times per day for 8 days starting 24 hrs before TNBS injection; assay type: functional, organism-based
[12] = Inhibition of interleukin-23 binding to rat interleukin-23 receptor incubated for 2 hrs by competitive binding ELISA
Interleukin-23 receptor [13] = molecular target: T1, Interleukin-23 receptor (Homo sapiens, UniProt Q5VWK5); test: Binding affinity to human FC-tagged human interleukin-23 receptor assessed as dissociation rate constant by SPR assay
T1 sequence (Q5VWK5 whole entry): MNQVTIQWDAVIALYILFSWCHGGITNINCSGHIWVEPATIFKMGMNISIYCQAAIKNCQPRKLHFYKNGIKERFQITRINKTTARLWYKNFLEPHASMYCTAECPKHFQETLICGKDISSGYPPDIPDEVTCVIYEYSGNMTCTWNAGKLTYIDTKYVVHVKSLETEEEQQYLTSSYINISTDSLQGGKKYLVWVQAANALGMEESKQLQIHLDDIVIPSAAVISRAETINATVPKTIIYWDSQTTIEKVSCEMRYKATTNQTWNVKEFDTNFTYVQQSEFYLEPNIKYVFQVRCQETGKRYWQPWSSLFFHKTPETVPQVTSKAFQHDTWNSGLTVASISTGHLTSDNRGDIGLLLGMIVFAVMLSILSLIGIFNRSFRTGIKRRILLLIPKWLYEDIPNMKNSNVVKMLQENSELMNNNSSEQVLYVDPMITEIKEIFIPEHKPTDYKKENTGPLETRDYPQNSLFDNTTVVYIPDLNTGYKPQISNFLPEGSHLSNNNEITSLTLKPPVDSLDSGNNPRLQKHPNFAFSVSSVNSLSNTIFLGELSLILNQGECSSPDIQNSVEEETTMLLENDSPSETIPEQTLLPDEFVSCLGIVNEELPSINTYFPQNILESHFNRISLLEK

Interleukin-23 receptor [14] = molecular target: T1, Interleukin-23 receptor; test: Binding affinity to human FC-tagged human interleukin-23 receptor by SPR assay
[15] = AUC in rat small intestinal mucosa at 20 mg/kg, po; assay type: ADME, organism-based, Mucosa of small intestine; details: in vivo
Rattus norvegicus [16] = test: Anti-colitis activity in Sprague-Dawley rat model of TNBS-induced colitis assessed as reduction in localized lesions in mucosa and sub-mucosal regions at 20 mg/kg, po dosed 3 times per day for 8 days starting 24 hrs before TNBS injection by H and E staining based histological assay; assay type: functional, organism-based
Rattus norvegicus [17] = test: Anti-colitis activity in Sprague-Dawley rat model of TNBS-induced colitis assessed as reduction in mucosal necrosis at 160 mg/kg/day, po starting 24 hrs before TNBS injection; assay type: functional, organism-based
PBMC [18] = test: Inhibition of IL12-stimulated IFNgamma production in PHA-activated human PBMC by ELISA; assay type: functional, cell-based
[19] = Half life in human intestinal fluid at 20 uM by LC-MS/MS analysis; assay type: ADME
[20] = Half life in DTT at 50 uM up up to 120 mins by reverse phase HPLC and UV detection based assay; assay type: physicochemical
Rattus norvegicus [21] = test: Anti-colitis activity in Sprague-Dawley rat model of TNBS-induced colitis assessed as improvement in gross pathology scores at 20 mg/kg, po dosed 3 times per day for 8 days starting 24 hrs before TNBS injection; assay type: functional, organism-based
[22] = Inhibition of interleukin-6 binding to human interleukin-6 receptor incubated for 2 hrs by competitive binding ELISA
Rattus norvegicus [23] = test: Anti-colitis activity in Sprague-Dawley rat model of TNBS-induced colitis assessed as reduction in colon wall thickness at 160 mg/kg/day, po starting 24 hrs before TNBS injection; assay type: functional, organism-based
Rattus norvegicus [24] = test: Anti-colitis activity in Sprague-Dawley rat model of TNBS-induced colitis assessed as reduction in inflammation at 160 mg/kg/day, po starting 24 hrs before TNBS injection; assay type: functional, organism-based
[25] = Half life in simulated gastric fluid at 20 uM by LC-MS/MS analysis; assay type: ADME
Rattus norvegicus [26] = test: Anti-colitis activity in Sprague-Dawley rat model of TNBS-induced colitis assessed as induction of healing at necrosis sites in colon at 20 mg/kg, po dosed 3 times per day for 8 days starting 24 hrs before TNBS injection by H and E staining based histological assay; assay type: functional, organism-based
Interleukin-23 receptor [27] = molecular target: T1, Interleukin-23 receptor; test: Inhibition of interleukin-23 binding to human interleukin-23 receptor incubated for 2 hrs by competitive binding ELISA
[28] = AUC in rat plasma at 20 mg/kg, po; assay type: ADME, organism-based
[29] = molecular target: T2, Interleukin-23 receptor (Homo sapiens) (UniProt Q5VWK5); test: Binding affinity to human FC-tagged human interleukin-23 receptor assessed as association constant by SPR assay
T2 sequence (whole entry): T1 sequence (Q5VWK5 whole entry)

[30] = Binding affinity to human FC-tagged human recombinant interleukin-12 receptor beta1/human FC-tagged human interleukin-23 receptor assessed as dissociation rate constant by SPR assay
[31] = Binding affinity to human FC-tagged human recombinant interleukin-12 receptor beta1/human FC-tagged human interleukin-23 receptor by SPR assay
Interleukin-23 receptor [32] = molecular target: T1, Interleukin-23 receptor; test: Inhibition of interleukin-23 receptor in human natural killer cells assessed as reduction in IL23/IL18-induced IFNgamma production incubated for 20 to 24 hrs by ELISA; assay type: cell-based
[33] = AUC in rat colon mucosa at 20 mg/kg, po; assay type: ADME, organism-based, Colonic mucosa; details: in vivo
[34] = Half life in simulated intestinal fluid at 20 uM by LC-MS/MS analysis; assay type: ADME
[35] = Ratio of IC50 for inhibition of interleukin-23 receptor in rat splenocytes assessed as reduction in IL23-stimulated IL-17A production incubated for 3 hrs by ELISA to plasma concentration in Sprague-Dawley rat model of TNBS-induced colitis
Homo sapiens = species on record: Homo sapiens; test: Binding affinity to human FC-tagged human recombinant interleukin-12 receptor beta1/human FC-tagged human interleukin-23 receptor assessed as association constant by SPR assay
[36] = Inhibition of interleukin-23 receptor in rat splenocytes assessed as reduction in IL23-stimulated IL-17A production incubated for 3 hrs by ELISA; assay type: cell-based
[37] = Inhibition of interleukin-23 binding to cynomolgus monkey interleukin-23 receptor incubated for 2 hrs by competitive binding ELISA; set-up: species or system Macaca fascicularis
[38] = molecular target: T3, Interleukin-12 receptor subunit beta-1 (Homo sapiens, UniProt P42701); test: Binding affinity to human recombinant interleukin-12 receptor beta1 by SPR assay
Rattus norvegicus [39] = test: Anti-colitis activity in Sprague-Dawley rat model of TNBS-induced colitis assessed as improvement in histological scores at 160 mg/kg/day, po starting 24 hrs before TNBS injection by H and E staining based histological assay; assay type: functional, organism-based
[40] = Ratio of IC50 for inhibition of interleukin-23 binding to rat interleukin-23 receptor incubated for 2 hrs by competitive binding ELISA to plasma concentration in Sprague-Dawley rat model of TNBS-induced colitis
Rattus norvegicus [41] = test: Anti-colitis activity in Sprague-Dawley rat model of TNBS-induced colitis assessed as reduction in inflammation at 20 mg/kg, po dosed 3 times per day for 8 days starting 24 hrs before TNBS injection; assay type: functional, organism-based
[42] = Drug recovery in rat feces at 20 mg/kg, po; assay type: ADME, organism-based; details: read-out: Drug recovery
Interleukin-23 receptor [43] = molecular target: T1, Interleukin-23 receptor; test: Inhibition of interleukin-23 receptor in human DB cells assessed as reduction in IL-23-stimulated STAT3 phosphorylation incubated for 30 mins by HTRF assay; assay type: cell-based
Interleukin-23 receptor [44] = molecular target: T1, Interleukin-23 receptor; test: Binding affinity to human recombinant interleukin-23 receptor by SPR assay
[45] = molecular target: T3, Interleukin-12 receptor subunit beta-1; test: Binding affinity to human FC-tagged human recombinant interleukin-12 receptor beta1 up to […] by SPR assay

Structure (SMILES): COc1ccc(C[C@H](NC(=O)[C@H]2NC(=O)[C@H](CCC(N)=O)NC(=O)[C@H](Cc3c[nH]c4ccccc34)NC(=O)[C@H]([C@@H](C)O)NC(=O)[C@H](CCC(N)=O)NC(=O)[C@@H](NC(C)=O)C(C)(C)SSC2(C)C)C(=O)N[C@@H](Cc2ccc3ccccc3c2)C(=O)N[C@@](C)(CCCCN)C(=O)N[C@@H](CCC(=O)O)C(=O)N[C@@H](CC(N)=O)C(=O)NCC(N)=O)cc1
Ratio (Rattus norvegicus [1]): 97.36 g/cm | Activity (Rattus norvegicus [2]): Active | Activity (Rattus norvegicus [3]): Active | Activity_index (Rattus norvegicus [4]): 0.61 | Activity (Rattus norvegicus [5]): Active | Activity (Rattus norvegicus [6]): Active | Activity (Rattus norvegicus [7]): Active | Activity (Rattus norvegicus [8]): 0.13% | inhibition (PBMC [9]): inactive | Activity (Rattus norvegicus [10]): Active

IC50 [12]: 10 to 25 nM | Kd (Interleukin-23 receptor [13]): 0.033 s⁻¹ | Kd (Interleukin-23 receptor [14]): 2.42 nM | AUC [15]: 355 µg·h/g | half-life at 20 µM [19]: > 24 h | half-life at 50 µM [20]: > 2 h | IC50 [22]: > 100000 nM | half-life at 20 µM [25]: 2 to 24 h | IC50 (Interleukin-23 receptor [27]): 10 to 25 nM | AUC [28]: 300 ng·h/mL | Ka [29]: 1.37 ×10⁷ /M/s | Kd [30]: 0.041 s⁻¹ | Kd [31]: 2.56 nM | AUC [33]: 77 µg·h/g | half-life at 20 µM [34]: 6 to 24 h | Ka (Homo sapiens): 1.59 ×10⁷ /M/s | IC50 [36]: 130 nM | IC50 [37]: 7 nM | Kd [38]: Not Active | dose excreted [42]: 40% | IC50 (Interleukin-23 receptor [43]): < 10 nM | Kd (Interleukin-23 receptor [44]): 2.4 nM | Activity [45]: inactive
Structure (SMILES): CC(=O)N[C@H]1CCSC[C@@H](C(=O)N[C@@H](Cc2ccc(OCCN)cc2)C(=O)N[C@@H](Cc2c[nH]c3ccccc23)C(=O)N[C@@](C)(CCCCN)C(=O)N[C@@H](CCC(=O)O)C(=O)N[C@@H](CC(N)=O)C(=O)NCC(N)=O)NC(=O)[C@H](CCC(N)=O)NC(=O)[C@H](Cc2c[nH]c3ccccc23)NC(=O)[C@H]([C@@H](C)O)NC(=O)[C@H](CCC(N)=O)NC1=O
Activity (Rattus norvegicus [11]): Active | Activity (Rattus norvegicus [16]): Active | Activity (Rattus norvegicus [17]): Active | IC50 (PBMC [18]): > 100000 nM | Activity (Rattus norvegicus [21]): Active | Activity (Rattus norvegicus [23]): Active | Activity (Rattus norvegicus [24]): Active | Activity (Rattus norvegicus [26]): Active | IC50 (Interleukin-23 receptor [32]): 25 to 27 nM | Ratio [35]: <2 | Activity (Rattus norvegicus [39]): Active | Ratio [40]: <2 | Activity (Rattus norvegicus [41]): Active
